Measured values taken from patent US11459327B1, “Cycloalkyl and hetero-cycloalkyl inhibitors, preparation methods therefor, and use thereof” (Suzhou Zelgen Biopharmaceuticals Co., Ltd., priority 2019, dated 2022).

Tests used:
[1] = test system: A549(KRAS^G12S mutation) cells; test: Cell assay of antiproliferative activity (Celltiter-Glo, 5 days) against A549 cells; format: cell-based; settings: Homo sapiens, 120 h, 5 days incubation
Protocol: (§1) Cell assay of antiproliferative activity of compounds against NCI-H358(KRAS^G12C mutation) and A549(KRAS^G12S mutation) cells.
(§2) 40 μl phosphate buffer was added to the outer wells of the 384 microplate, and 40 μl cell suspension to be tested was added to the other wells. Then the microplate was incubated in a carbon dioxide incubator overnight.
(§3) The compounds to be tested were gradiently diluted, each compound was performed 10 concentration gradients (diluted from 50 μM to 0.003 μM) and added 100 nL to the corresponding wells in the microplate. After addition, 40 μl of phosphate buffer was added to each well in rows A and P and columns 1 and 24, and then the microplate was incubated in a carbon dioxide incubator for 5 days.
(§4) 20 μL of Promega Celltiter-Glo reagent was added to each well of the microplate, and then the luminescence signal was stabilized by oscillating at room temperature for 10 min. Then PekinElmer Envision multi-label analyzer was used to read.
(§5) Finally, GraphPad Prism software was used to calculate the IC50 value of the compound and the fitting curve was drawn.
(§6) Anti-proliferative activity of the compounds of the present invention against NCI-H358(KRAS^G12C mutation) and A549(KRAS^G12S mutation) cells were shown in Table 1.

[2] = test system: NCI-H358(KRAS^G12C mutation) cells; test: Cell assay of antiproliferative activity (Celltiter-Glo, 5 days) against NCI-H358 cells; format: cell-based; settings: 5 days incubation
Protocol: as §1, §2, §3, §4, §5, §6

| Compound | IC50 [1] | IC50 ([2]; Homo sapiens, NCI-H358, 120 h) | IC50 [2] |
| --- | --- | --- | --- |
| C=CC(=O)N1CCN(c2nc(OCCN(C)C3CC3)nc3c2CCN(c2cccc4cccc(C)c24)C3)CC1CC#N (stereo not shown) [Example 70, 2-(1-acroloyl-4-(2-(2-((cyclopropyl)(methyl)amino)ethoxy)-7-(8-methylnaphthalen-1-yl)-5,6,7,8-tetrahydropyrido[3,4-d]pyrimidin-4-yl)piperazin-2-yl) acetonitrile] | 11500 nM | 170 nM | – |
| C=CC(=O)N1CCN(c2nc(OCCN(C)CC3CC3)nc3c2CCN(c2cccc4cccc(C)c24)C3)CC1CC#N (stereo not shown) [Example 73] | 3700 nM | 60 nM | – |
| C=CC(=O)N1CCN(c2nc(OCCN(CC(F)(F)F)C3CCC3)nc3c2CCN(c2cccc4cccc(Cl)c24)C3)CC1CC#N (stereo not shown) [Example 10, 2-(1-acroloyl-4-(7-(8-chloronaphthalen-1-yl)-2-(2-(cyclobutyl(2,2,2-trifluoroethyl)amino)ethoxy)-5,6,7,8-tetrahydropyrido[3,4-d]pyrimidin-4-yl)piperazin-2-yl) acetonitrile] | 17400 nM | 6500 nM | – |
| C=CC(=O)N1CCN(c2nc(O[C@@H](C)CN(C)CC3CC3)nc3c2CCN(c2cccc4cccc(C)c24)C3)CC1CC#N (stereo partly drawn) [Example 76, 2-(1-acroloyl-4-(2-(((S)-1-((cyclopropylmethyl)(methyl)amino)propan-2-yl)oxy)-7-(8-methylnaphthalen-1-yl)-5,6,7,8-tetrahydropyrido[3,4-d]pyrimidin-4-yl)piperazin-2-yl) acetonitrile] | 3500 nM | 860 nM | – |
| C=CC(=O)N1CCN(c2nc(OCCN(C)[C@@H](C)C3CC3)nc3c2CCN(c2cccc4cccc(C)c24)C3)CC1CC#N (stereo partly shown) [Example 78] | 2800 nM | 50 nM | – |
| C=CC(=O)N1CCN(c2nc(OCCN(C)C3COC3)nc3c2CCN(c2cccc4cccc(C)c24)C3)CC1CC#N (stereo not shown) [Example 7, 2-(1-acroloyl-4-(2-(2-(methyl(cyclobutoxy-3-yl)amino)ethyoxyl)-7-(8-methylnaphthalen-1-yl)-5,6,7,8-tetrahydropyrido[3,4-d]pyrimidin-4-yl)piperazin-2-yl) acetonitrile] | 8200 nM | 72 nM | – |
| C=CC(=O)N1CCN(c2nc(O[C@@H]3CCC[C@@H]3N(C)C)nc3c2CCN(c2cccc4cccc(Cl)c24)C3)CC1CC#N (stereo partly drawn) [Example 15, 2-(1-acroloyl-4-(7-(8-chloronaphthalen-1-yl)-2-(((cis)-2-(dimethylamino)cyclopentyl)oxy)-5,6,7,8-tetrahydropyrido[3,4-d]pyrimidin-4-yl)piperazin-2-yl) acetonitrile] | 13500 nM | 90 nM | – |
| C=C(F)C(=O)N1CCN(c2nc(OCC3(CN4CCC4)CC3)nc3c2CCN(c2cccc4cccc(Cl)c24)C3)C[C@@H]1CC#N [Example 48] | – | 65 nM | – |
| C=CC(=O)N1[C@@H]2CC[C@H]1CN(c1nc(OCC3(CN(C)C)CC3)nc3c1CCN(c1cccc4cccc(Cl)c14)C3)C2 [Example 37, 1-((1R,5S)-3-(7-(8-chloronaphthalen-1-yl)-2-((1-((dimethylamino)methyl)cyclopropyl)methoxyl)-5,6,7,8-tetrahydropyrido[3,4-d]pyrimidin-4-yl)-3,8-diazabicyclo[3.2.1]octane-8-yl)prop-2-ene-1-one] | – | 1400 nM | – |
| C=CC(=O)N1CCN(c2nc(OC[C@H](C)N(C)C3CCC3)nc3c2CCN(c2cccc4cccc(C)c24)C3)C[C@@H]1CC#N [Example 91A, 2-((S)-1-acroloyl-4-(2-((S)-2-(cyclobutyl(methyl)amino)propoxy)-7-(8-methylnaphthalen-1-yl)-5,6,7,8-tetrahydropyrido[3,4-d]pyrimidin-4-yl)piperazin-2-yl) acetonitrile] | – | – | < 30 nM |
| C=C(F)C(=O)N1CCN(c2nc(OCC3(C(C)N(C)C)CC3)nc3c2CCN(c2cccc4cccc(Cl)c24)C3)C[C@@H]1CC#N (stereo partly drawn) [Example 53B, 2-((2S)-4-(7-(8-chloronaphthalen-1-yl)-2-(1-(1-((dimethylamino)ethyl)cyclopropyl)methoxy)-5,6,7,8-tetrahydropyrido[3,4-d]pyrimidin-4-yl)-1-(2-fluoroacroloyl)piperazin-2-yl) acetonitrile] | – | – | 1300 nM |
| C=CC(=O)N1CCN(c2nc(OCC3(CN(C)C)CC3)nc3c2CC(C)N(c2cccc4cccc(Cl)c24)C3)CC1CC#N (single isomer, unassigned) [Example 29C, 2-(1-acroloyl-4-(7-(8-chloronaphthalen-1-yl)-2-((1-((dimethylamino)methyl)cyclopropyl)methoxyl)-6-methyl-5,6,7,8-tetrahydropyrido [3,4-d]pyrimidin-4-yl)piperazin-2-yl) acetonitrile] | – | – | 100 nM |
| C=CC(=O)N1CC2(CCN(c3nc(OCC4(CN(C)C)CC4)nc4c3CCN(c3cccc5cccc(Cl)c35)C4)C2)C1 [Example 44, 1-(6-(7-(8-chloronaphthalen-1-yl)-2-((1-((dimethylamino)methyl)cyclopropyl)methoxyl)-5,6,7,8-tetrahydropyrido[3,4-d]pyrimidin-4-yl)-2,6-diazaspiro[3.4]octane-2-yl)prop-2-ene-1-one] | – | 3300 nM | – |

Now from value to compound, other results behind:

| IC50 [1] | IC50 ([2]; Homo sapiens, NCI-H358, 120 h) | Compound | IC50 [2] |
| --- | --- | --- | --- |
| 7100 nM | 60 nM | C=CC(=O)N1CCN(c2nc(OCCN(CCOC)C3CCC3)nc3c2CCN(c2cccc4cccc(Cl)c24)C3)CC1CC#N (stereo not shown) [Example 5] | – |
| 4300 nM | 7.8 nM | C=CC(=O)N1CCN(c2nc(OCC3(CN(C)C)CC3)nc3c2CCN(c2cccc4cccc(Cl)c24)C3)CC1CC#N (stereo not shown) [Example 2, 2-(1-acroloyl-4-(7-(8-chloronaphthalen-1-yl)-2-((1-((dimethylamino)methyl)cyclopropyl)methoxyl)-5,6,7,8-tetrahydropyrido[3,4-d]pyrimidin-4-yl)piperazin-2-yl) acetonitrile] | – |
| 2700 nM | 1800 nM | C=CC(=O)N1CCN(c2nc(O[C@H](C)CN(C)CC3CC3)nc3c2CCN(c2cccc4cccc(C)c24)C3)CC1CC#N (stereo partly drawn) [Example 77, 2-(1-acroloyl-4-(2-(((R)-1-((cyclopropylmethyl)(methyl)amino)propan-2-yl)oxy)-7-(8-methylnaphthalen-1-yl)-5,6,7,8-tetrahydropyrido[3,4-d]pyrimidin-4-yl)piperazin-2-yl) acetonitrile] | – |
| 7040 nM | 130 nM | C=CC(=O)N1CCN(c2nc(OC[C@H](CC)N(C)C3CCC3)nc3c2CCN(c2cccc4cccc(Cl)c24)C3)CC1CC#N (stereo partly drawn) [Example 8, 2-(1-acroloyl-4-(7-(8-chloronaphthalen-1-yl)-2-((S)-2-(cyclobutyl (methyl)amino)butyloxy)-5,6,7,8-tetrahydropyrido[3,4-d]pyrimidin-4-yl)piperazin-2-yl) acetonitrile] | – |
| 2800 nM | 90 nM | C=CC(=O)N1CCN(c2nc(OC[C@@H](C)N(C)CC3CC3)nc3c2CCN(c2cccc4cccc(C)c24)C3)CC1CC#N (stereo partly shown) [Example 75] | – |
| – | 73 nM | C=CC(=O)N1CCN(c2nc(OCCN(C)C3(COC)CCC3)nc3c2CCN(c2cccc4cccc(Cl)c24)C3)CC1CC#N (stereo not shown) [Example 31, 2-(acroloyl-4-(7-(8-chloronaphthalen-1-yl)-2-(2-((1-(methoxymethyl)cyclobutyl)(methyl)amino)ethoxy)-5,6,7,8-tetrahydropyrido[3,4-d]pyrimidin-4-yl)piperazin-2-yl) acetonitrile] | – |
